The record followed here is ChEMBL document CHEMBL1140075 (J Med Chem, 2008).

Data set [1] has as its target Neuronal acetylcholine receptor subunit alpha-7 (Rattus norvegicus, UniProt Q05941).
Data set [2] concerns the target Acetylcholine-binding protein (Lymnaea stagnalis, UniProt P58154).
Data set [3] in a line: Stability assessed as loss of native globular conformation level in presence of reduced glutathione at 500 uM at 2 hrs. It is filed as physicochemical. The following applies: solution with 500 uM reduced glutathione; read-out: Activity.
Data set [4] in a line: Stability assessed as half life of native globular conformation state in presence of reduced glutathione at 500 uM. It is filed as physicochemical. The following applies: solution with 500 uM reduced glutathione.
Data set [5] is described as follows: Stability assessed as native globular conformation level in presence of reduced glutathione at 500 uM at 24 hrs. To be noted: solution with 500 uM reduced glutathione; read-out: Stability. Type of data set: physicochemical.
The target of data set [6] is Neuronal acetylcholine receptor subunit alpha-7 (Rattus norvegicus) (UniProt Q05941). As to the kind of experiment: Activity at rat alpha7 nAChR expressed in Xenopus laevis assessed as inhibition of acetylcholine-induced current at holding potential of -80 mV up to 10 uM by two-electrode voltage clamp technique.
The target is the same in data set [7]. Put plainly: Activity at rat alpha7 nAChR expressed in Xenopus laevis assessed as inhibition of acetylcholine-induced current at holding potential of -80 mV up to 1 uM by two-electrode voltage clamp technique.
The nature of data set [8]: physchem. The following applies: solution with 500 uM reduced glutathione.

Active and inactive are the calls of the source. The calls are words filed in the database; no cut-off is given here. Positions of bridges follow the written chain, without caps; N, C: chain ends. Residues, ends and D or L forms follow the SMILES beside them. Where only a bound is given, the exact number is not on record here.

Chain of Neuronal acetylcholine receptor subunit alpha-7 (Q05941 whole entry): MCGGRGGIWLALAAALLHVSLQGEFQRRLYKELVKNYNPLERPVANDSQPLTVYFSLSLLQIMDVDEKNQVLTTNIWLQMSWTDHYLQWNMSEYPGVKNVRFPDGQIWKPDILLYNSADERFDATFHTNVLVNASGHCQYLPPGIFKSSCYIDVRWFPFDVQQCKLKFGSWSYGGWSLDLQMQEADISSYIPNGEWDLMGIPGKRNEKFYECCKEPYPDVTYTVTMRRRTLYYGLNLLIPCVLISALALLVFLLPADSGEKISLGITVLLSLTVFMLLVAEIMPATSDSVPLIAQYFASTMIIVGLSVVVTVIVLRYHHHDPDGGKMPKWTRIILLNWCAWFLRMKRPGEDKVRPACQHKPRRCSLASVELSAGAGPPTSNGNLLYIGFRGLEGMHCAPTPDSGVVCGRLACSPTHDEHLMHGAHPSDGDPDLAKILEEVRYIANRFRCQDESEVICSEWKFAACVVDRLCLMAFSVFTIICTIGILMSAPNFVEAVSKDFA
Chain of Neuronal acetylcholine receptor subunit alpha-7 (Rattus norvegicus) (Q05941 whole entry): as above
Chain of Acetylcholine-binding protein (P58154 whole entry): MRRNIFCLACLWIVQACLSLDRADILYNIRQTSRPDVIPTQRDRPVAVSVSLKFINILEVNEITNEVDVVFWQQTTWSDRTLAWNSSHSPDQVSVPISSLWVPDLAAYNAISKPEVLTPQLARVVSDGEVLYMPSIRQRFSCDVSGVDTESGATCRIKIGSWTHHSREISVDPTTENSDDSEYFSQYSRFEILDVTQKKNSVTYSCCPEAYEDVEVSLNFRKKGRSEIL

The compound `CC(C)C[C@@H]1NC(=O)[C@H](CO)NC(=O)[C@@H]2CSSC[C@@H](C(=O)O)NC(=O)[C@H](Cc3ccc(O)cc3)NC(=O)[C@H](CC(=O)O)NC(=O)[C@@H]3CCCN3C(=O)[C@H](CC(N)=O)NC(=O)[C@H](CC(N)=O)NC(=O)[C@H](C)NC(=O)[C@H](C)NC(=O)[C@H](CSSC[C@H](NC(=O)CN)C(=O)N2)NC(=O)[C@@H]2CCCN2C(=O)[C@@H]2CCCN2C1=O` (H-GCCSLPPCAANNPDYC-OH; disulfide 2-8, 3-16) displayed a half-maximal inhibitory concentration (IC50) in data set [1] of 252 nM. The same compound registered a Ki in data set [2] of 124 nM.

In data set [1], `CC(C)C[C@@H]1NC(=O)[C@H](C)NC(=O)[C@@H]2CSSC[C@H](NC(=O)CN)C(=O)N[C@@H](CSSC[C@@H](C(=O)O)NC(=O)[C@H](CC(N)=O)NC(=O)[C@H](CC(N)=O)NC1=O)C(=O)N[C@@H](CO)C(=O)N[C@@H](CC(C)C)C(=O)N1CCC[C@H]1C(=O)N1CCC[C@H]1C(=O)N2` (H-GCCSLPPCALNNC-OH; disulfide 2-8, 3-13) had an IC50 of 207 nM. In data set [2], this compound registered a Ki of 4500 nM. Also, the degraded at 2 h in data set [3] is above 80%. In addition, the half-life in data set [4] is below 0.5 h.

Compound `CC(C)C[C@@H]1NC(=O)[C@H](C)NC(=O)[C@@H]2CSSC[C@H](NC(=O)CN)C(=O)N[C@@H](CSSC[C@@H](C(=O)O)NC(=O)[C@@H]3CCCN3C(=O)[C@H](CC(N)=O)NC(=O)[C@H](CC(N)=O)NC1=O)C(=O)N[C@@H](CO)C(=O)N[C@@H](CC(C)C)C(=O)N1CCC[C@H]1C(=O)N1CCC[C@H]1C(=O)N2` (H-GCCSLPPCALNNPC-OH; disulfide 2-8, 3-14) returned an IC50 in data set [1] of 79 nM. This compound also displayed a Ki in data set [2] of 4600 nM. In addition, the degraded at 2 h in data set [3] was above 80%. In addition, in data set [4], the half-life is below 0.5 h.

`CC(C)C[C@@H]1NC(=O)[C@H](C)NC(=O)[C@@H]2CSSC[C@H](NC(=O)CN)C(=O)N[C@@H](CSSC[C@@H](C(=O)O)NC(=O)[C@H](CC(N)=O)NC1=O)C(=O)N[C@@H](CO)C(=O)N[C@@H](CC(C)C)C(=O)N1CCC[C@H]1C(=O)N[C@@H](CCCNC(=N)N)C(=O)N2` (H-GCCSLPRCALNC-OH; disulfide 2-8, 3-12): in data set [5], the remaining at 24 h is 40%. Also, in data set [6], the outcome was inactive. In data set [4], the half-life is 1 h.

Take `CC(C)C[C@@H]1NC(=O)[C@H](C)NC(=O)[C@@H]2CSSC[C@H](NC(=O)CN)C(=O)N[C@@H](CSSC[C@@H](C(=O)O)NC(=O)[C@H](CC(N)=O)NC1=O)C(=O)N[C@@H](CO)C(=O)N[C@@H](CC(C)C)C(=O)N1CCC[C@H]1C(=O)N1CCC[C@H]1C(=O)N2` (H-GCCSLPPCALNC-OH; disulfide 2-8, 3-12): the IC50 in data set [1] is above 10000 nM. For the same compound, the result in data set [7] was inactive. Further, in data set [2], the Ki is 7900 nM. The degraded at 2 h in data set [3] was above 80%. Besides, the half-life in data set [4] is below 0.5 h.

As for `CC(C)C[C@@H]1NC(=O)[C@H](C)NC(=O)[C@@H]2CSSC[C@H](NC(=O)CN)C(=O)N[C@@H](CSSC[C@@H](C(=O)O)NC(=O)[C@H](CC(=O)O)NC(=O)[C@@H]3CCCN3C(=O)[C@H](CC(N)=O)NC(=O)[C@H](CC(N)=O)NC1=O)C(=O)N[C@@H](CO)C(=O)N[C@@H](CC(C)C)C(=O)N1CCC[C@H]1C(=O)N1CCC[C@H]1C(=O)N2` (H-GCCSLPPCALNNPDC-OH; disulfide 2-8, 3-15), the midpoint of inhibition in data set [1], the IC50, lay at 115 nM. Also, the outcome in data set [6] was inactive. Besides, the Ki in data set [2] worked out at 3100 nM. For the same compound, the remaining at 8 h, 500 µM in data set [8] was determined as 40%. The half-life in data set [4] is 2 h.
